Measurements taken from the NIST ThermoML archive (doi:10.1021/acs.jced.8b00692).

Experiment: xn = mol fraction of the nth substance listed
Details: 102 kPa, Liquid; for viscosity: Concentric cylinders viscometry; for speed of sound: Frequency=3 MHz, Single path-length method; for mass density: Vibrating tube method

CCCCCCCC1CCCCC1 [heptylcyclohexane] + CCCCCCCCCCCCCCCC
Details	mass density [kg/m3]	speed of sound [m/s]	viscosity [mPa·s]
293.15 K, x1 = 0.1997	779.33	1358.9	3.34
293.15 K, x1 = 0.4002	785.92	1362	3.2
293.15 K, x1 = 0.5001	789.55	1363.4	3.13
293.15 K, x1 = 0.6006	793.34	1365.3	3.05
293.15 K, x1 = 0.7998	801.63	1368.8	2.92
293.15 K, x1 = 1	810.99	1374.4	2.8
303.15 K, x1 = 0.1997	772.4	1321.7	2.66
303.15 K, x1 = 0.4002	778.99	1324.4	2.56
303.15 K, x1 = 0.5001	782.6	1326.1	2.51
303.15 K, x1 = 0.6006	786.39	1327.5	2.45
303.15 K, x1 = 0.7998	794.64	1331.3	2.35
303.15 K, x1 = 1	803.96	1336.1	2.26
313.15 K, x1 = 0.1997	765.47	1285.1	2.17
313.15 K, x1 = 0.4002	772.06	1287.5	2.08
313.15 K, x1 = 0.5001	775.66	1289.4	2.05
313.15 K, x1 = 0.6006	779.44	1290.6	2.01
313.15 K, x1 = 0.7998	787.98	1294.3	1.93
313.15 K, x1 = 1	796.93	1298.7	1.86
323.15 K, x1 = 0.1997	758.54	1249.3	1.8
323.15 K, x1 = 0.4002	765.13	1251.5	1.73
323.15 K, x1 = 0.5001	768.71	1253.4	1.71
323.15 K, x1 = 0.6006	772.48	1254.5	1.67
323.15 K, x1 = 0.7998	780.65	1258.1	1.61
323.15 K, x1 = 1	789.89	1262.1	1.56
333.15 K, x1 = 0.1997	751.62	1214.4	1.52
333.15 K, x1 = 0.4002	758.19	1216.7	1.46
333.15 K, x1 = 0.5001	761.75	1218.2	1.45
333.15 K, x1 = 0.6006	765.51	1219.4	1.42
333.15 K, x1 = 0.7998	773.64	1222.8	1.37
333.15 K, x1 = 1	782.83	1226.5	1.33
343.15 K, x1 = 0.1997	744.7	–	1.31
343.15 K, x1 = 0.4002	751.3	–	1.25
343.15 K, x1 = 0.5001	754.8	–	1.25
343.15 K, x1 = 0.6006	758.6	–	1.22
343.15 K, x1 = 0.7998	766.7	–	1.18
343.15 K, x1 = 1	775.8	–	1.15
353.15 K, x1 = 0.1997	737.7	–	1.12
353.15 K, x1 = 0.4002	744.3	–	1.09
353.15 K, x1 = 0.5001	747.8	–	1.07
353.15 K, x1 = 0.6006	751.6	–	1.06
353.15 K, x1 = 0.7998	759.6	–	1.03
353.15 K, x1 = 1	768.7	–	0.993
363.15 K, x1 = 0.1997	730.8	–	1
363.15 K, x1 = 0.4002	737.8	–	0.954
363.15 K, x1 = 0.5001	740.7	–	0.962
363.15 K, x1 = 0.6006	744.5	–	0.932
363.15 K, x1 = 0.7998	752.6	–	0.903
363.15 K, x1 = 1	761.6	–	0.892
373.15 K, x1 = 0.1997	723.7	–	0.866
373.15 K, x1 = 0.4002	730.3	–	0.845
373.15 K, x1 = 0.5001	733.7	–	0.834
373.15 K, x1 = 0.6006	737.5	–	0.827
373.15 K, x1 = 0.7998	745.4	–	0.803
373.15 K, x1 = 1	754.4	–	0.776

CCCCCCC1CCCCC1 [hexylcyclohexane] + CCCCCCCCCCCCCCCC
Details	mass density [kg/m3]	speed of sound [m/s]	viscosity [mPa·s]
293.15 K, x1 = 0.1003	775.83	1357.1	3.35
293.15 K, x1 = 0.2002	778.43	1356.8	3.21
293.15 K, x1 = 0.2996	781.19	1356.9	3.09
293.15 K, x1 = 0.4192	784.77	1357	2.93
293.15 K, x1 = 0.5004	787.39	1357.1	2.82
293.15 K, x1 = 0.603	790.94	1357.4	2.7
293.15 K, x1 = 0.8003	798.59	1358.6	2.44
293.15 K, x1 = 1	807.71	1361	2.2
303.15 K, x1 = 0.1003	768.88	1319.8	2.66
303.15 K, x1 = 0.2002	771.48	1319.5	2.57
303.15 K, x1 = 0.2996	774.23	1319.6	2.47
303.15 K, x1 = 0.4192	777.8	1319.6	2.36
303.15 K, x1 = 0.5004	780.41	1319.7	2.28
303.15 K, x1 = 0.603	783.93	1319.8	2.19
303.15 K, x1 = 0.8003	791.52	1320.7	2
303.15 K, x1 = 1	800.56	1322.1	1.81
313.15 K, x1 = 0.1003	761.95	1283.2	2.17
313.15 K, x1 = 0.2002	764.54	1282.8	2.1
313.15 K, x1 = 0.2996	767.28	1282.9	2.02
313.15 K, x1 = 0.4192	770.83	1282.8	1.94
313.15 K, x1 = 0.5004	773.42	1282.9	1.87
313.15 K, x1 = 0.603	776.92	1282.9	1.8
313.15 K, x1 = 0.8003	784.45	1283.5	1.65
313.15 K, x1 = 1	793.4	1284.2	1.51
323.15 K, x1 = 0.1003	755.02	1247.3	1.8
323.15 K, x1 = 0.2002	757.6	1246.9	1.75
323.15 K, x1 = 0.2996	760.32	1246.9	1.68
323.15 K, x1 = 0.4192	763.85	1246.7	1.62
323.15 K, x1 = 0.5004	766.42	1246.7	1.57
323.15 K, x1 = 0.603	769.89	1246.6	1.52
323.15 K, x1 = 0.8003	777.35	1246.9	1.4
323.15 K, x1 = 1	786.22	1247.1	1.29
333.15 K, x1 = 0.1003	748.09	1212.3	1.51
333.15 K, x1 = 0.2002	750.65	1211.9	1.47
333.15 K, x1 = 0.2996	753.35	1211.7	1.42
333.15 K, x1 = 0.4192	756.86	1211.5	1.37
333.15 K, x1 = 0.5004	759.41	1211.4	1.33
333.15 K, x1 = 0.603	762.86	1211.2	1.29
333.15 K, x1 = 0.8003	770.24	1211.1	1.2
333.15 K, x1 = 1	779.02	1211	1.09
343.15 K, x1 = 0.1003	741.2	–	1.29
343.15 K, x1 = 0.2002	743.7	–	1.27
343.15 K, x1 = 0.2996	746.5	–	1.22
343.15 K, x1 = 0.4192	749.9	–	1.18
343.15 K, x1 = 0.5004	752.4	–	1.15
343.15 K, x1 = 0.603	755.9	–	1.13
343.15 K, x1 = 0.8003	763.1	–	1.05
343.15 K, x1 = 1	771.8	–	0.964
353.15 K, x1 = 0.1003	734.2	–	1.12
353.15 K, x1 = 0.2002	736.7	–	1.09
353.15 K, x1 = 0.2996	739.5	–	1.06
353.15 K, x1 = 0.4192	742.9	–	1.02
353.15 K, x1 = 0.5004	745.4	–	1
353.15 K, x1 = 0.603	748.8	–	0.971
353.15 K, x1 = 0.8003	756	–	0.919
353.15 K, x1 = 1	764.6	–	0.847
363.15 K, x1 = 0.1003	727.3	–	0.981
363.15 K, x1 = 0.2002	729.7	–	0.977
363.15 K, x1 = 0.2996	732.5	–	0.931
363.15 K, x1 = 0.4192	735.9	–	0.901
363.15 K, x1 = 0.5004	738.3	–	0.88
363.15 K, x1 = 0.603	741.7	–	0.873
363.15 K, x1 = 0.8003	748.8	–	0.817
363.15 K, x1 = 1	757.3	–	0.758
